Measured values: patent US8569267B2, “Tetracyclic tetrahydrofuran derivatives containing cyclic amine side chain” (Janssen Pharmaceutica, NV, priority 2005, dated 2013)

What was measured:
[1] = biological target: T1, NET (norepinephrine transporter) (Rattus norvegicus, UniProt Q63380); experiment: In vitro determination of NET reuptake inhibition ([3H]Nixosetine binding, rat brain cortex); conditions: rat brain cortex, read-out: NET pIC50 (converted)
T1 construct: Cortex from rat brain was collected and homogenised; from tissue; host or cells: rat brain cortex
How it was run: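 Rat cortex homogenised in Tris 50 mM, NaCl 120 mM, KCl 5 mM, pH 7.4 was used for competition binding against [3H]nisoxetine. Bound radioligand was collected by filtration on GF/B filters and counted by scintillation. Percentage specific binding and competition curves were derived.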

[2] = biological target: T2, human cloned 5-HT2C receptor, expressed in CHO cells (Homo sapiens, UniProt P28335); experiment: In vitro binding affinity for 5-HT2C receptor ([3H]mesulergine radioligand binding); conditions: human cloned 5-HT2C receptor, read-out: 5-HT2C pIC50 (converted)
T2 construct: expressed in transfected cells; host or cells: CHO cells
T2 sequence (P28335 33-458): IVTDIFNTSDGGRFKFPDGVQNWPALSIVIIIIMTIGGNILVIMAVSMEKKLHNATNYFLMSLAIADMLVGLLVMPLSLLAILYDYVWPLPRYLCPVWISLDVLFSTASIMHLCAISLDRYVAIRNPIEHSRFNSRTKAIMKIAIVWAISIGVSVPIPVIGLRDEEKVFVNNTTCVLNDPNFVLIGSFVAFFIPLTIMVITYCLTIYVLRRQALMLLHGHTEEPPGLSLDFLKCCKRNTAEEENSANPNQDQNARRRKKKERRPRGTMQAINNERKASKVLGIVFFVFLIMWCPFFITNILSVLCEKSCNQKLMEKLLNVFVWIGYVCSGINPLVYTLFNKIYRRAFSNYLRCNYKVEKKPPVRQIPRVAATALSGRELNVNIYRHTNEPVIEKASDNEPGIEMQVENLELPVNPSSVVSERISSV
How it was run: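 Competition radioligand binding: varying test-compound concentrations incubated with receptor preparation and radioligand to binding equilibrium. Bound radioactivity separated from free and counted; affinity inferred from concentration-dependent inhibition of radioligand binding.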

[3] = biological target: T3, human cloned 5-HT2A receptor, expressed in L929 cells (Homo sapiens, UniProt P28223); experiment: In vitro binding affinity for 5-HT2A receptor ([125I]R91150 radioligand binding); conditions: human cloned 5-HT2A receptor in L929 cells, [125I]R91150; read-out: 5-HT2A pIC50 (converted)
T3 construct: expressed in transfected cells; host or cells: L929 cells
How it was run: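 Competition radioligand binding to human cloned 5-HT2A receptor expressed in L929 cells, using [125I]R91150 with test compound at various concentrations. At equilibrium, receptor-bound radioactivity was separated from free and counted. Affinity reflects inhibition of radioligand binding.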

[4] = biological target: T4, human Dopamine D2L receptor (Homo sapiens, UniProt P14416); experiment: In vitro binding affinity for human D2L receptor ([3H]Spiperone binding); conditions: human D2L receptor-transfected CHO cell membranes, read-out: D2L pIC50 (converted)
T4 construct: expressed in transfected cells; host or cells: CHO cells
How it was run: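 Membranes from CHO cells transfected with the receptor were incubated with [3H]Spiperone (diluted to 2 nmol/L before addition) and compound for 30 min at 37° C. Buffer was Tris-HCl, pH 7.7, with NaCl, CaCl2, MgCl2 and KCl, and non-specific binding was defined with 10^−6 mol/l Butaclamol. Bound radioactivity was collected by filtration, counted by scintillation, and competition curves calculated as percent specific binding.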

T3 sequence (P28223 whole entry): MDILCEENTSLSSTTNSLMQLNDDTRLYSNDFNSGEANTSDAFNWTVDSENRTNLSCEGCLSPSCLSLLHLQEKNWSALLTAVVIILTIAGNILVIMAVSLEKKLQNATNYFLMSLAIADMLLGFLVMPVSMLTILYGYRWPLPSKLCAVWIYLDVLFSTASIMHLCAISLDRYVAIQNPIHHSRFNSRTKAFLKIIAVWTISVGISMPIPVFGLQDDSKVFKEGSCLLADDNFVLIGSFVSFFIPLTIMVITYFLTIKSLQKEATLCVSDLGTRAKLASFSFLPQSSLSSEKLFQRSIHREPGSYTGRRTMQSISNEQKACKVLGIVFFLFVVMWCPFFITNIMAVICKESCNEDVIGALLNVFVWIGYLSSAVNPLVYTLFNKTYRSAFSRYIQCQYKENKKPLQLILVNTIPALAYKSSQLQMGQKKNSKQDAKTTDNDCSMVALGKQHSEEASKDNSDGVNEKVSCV
T1 sequence (Q63380 1-617): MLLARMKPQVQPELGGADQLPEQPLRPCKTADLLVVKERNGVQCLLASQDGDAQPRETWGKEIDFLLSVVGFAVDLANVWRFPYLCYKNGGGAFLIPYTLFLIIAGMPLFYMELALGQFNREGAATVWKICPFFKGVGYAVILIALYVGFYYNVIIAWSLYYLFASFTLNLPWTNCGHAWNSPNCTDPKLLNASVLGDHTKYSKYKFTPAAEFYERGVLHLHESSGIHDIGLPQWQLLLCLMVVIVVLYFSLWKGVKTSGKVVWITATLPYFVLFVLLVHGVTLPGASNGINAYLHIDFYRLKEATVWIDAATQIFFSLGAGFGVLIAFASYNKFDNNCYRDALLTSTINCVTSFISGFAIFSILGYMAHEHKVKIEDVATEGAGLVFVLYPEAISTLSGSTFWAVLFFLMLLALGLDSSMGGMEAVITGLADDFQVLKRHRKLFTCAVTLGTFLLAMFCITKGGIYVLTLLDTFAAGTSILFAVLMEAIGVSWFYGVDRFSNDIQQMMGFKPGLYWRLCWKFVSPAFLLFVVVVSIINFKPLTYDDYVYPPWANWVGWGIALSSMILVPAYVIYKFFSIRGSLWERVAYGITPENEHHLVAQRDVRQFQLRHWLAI
T4 sequence (P14416 whole entry): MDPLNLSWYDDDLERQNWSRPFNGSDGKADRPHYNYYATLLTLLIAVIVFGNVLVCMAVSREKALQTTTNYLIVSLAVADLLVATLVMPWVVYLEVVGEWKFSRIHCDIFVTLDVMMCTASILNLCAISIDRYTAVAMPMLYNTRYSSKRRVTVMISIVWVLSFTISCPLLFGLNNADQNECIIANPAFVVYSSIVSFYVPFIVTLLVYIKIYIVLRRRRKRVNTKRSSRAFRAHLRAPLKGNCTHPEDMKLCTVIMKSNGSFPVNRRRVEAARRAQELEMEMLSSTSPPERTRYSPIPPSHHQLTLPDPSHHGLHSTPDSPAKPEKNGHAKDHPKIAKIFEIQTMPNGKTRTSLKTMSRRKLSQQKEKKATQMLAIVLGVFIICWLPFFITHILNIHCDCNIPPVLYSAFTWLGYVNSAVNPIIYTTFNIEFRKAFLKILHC

## O=C(C1CCN(CC2CC3c4ccccc4Cc4ccc(F)cc4C3O2)CC1)N1CCN(CC=Cc2ccccc2)CC1 (stereo not drawn) [Compound 204]
[1]
  IC50: 3470 nM
[2]
  IC50: 10.5 nM
[3]
  IC50: 3.16 nM
[4]
  IC50: 66.1 nM

## CSCCNC(=O)N1CCN(CC2CC3c4ccccc4Cc4ccc(F)cc4C3O2)CC1 (stereo not drawn) [Compound 87]
[1]
  IC50: 5890 nM
[2]
  IC50: 3.09 nM
[3]
  IC50: 1.26 nM
[4]
  IC50: 25.7 nM

## OCCC1CN(C[C@H]2C[C@@H]3c4ccccc4Cc4ccc(F)cc4[C@@H]3O2)CCO1 (stereo partly drawn) [Compound 129]
[1]
  IC50: 417 nM
[2]
  IC50: 7.59 nM
[3]
  IC50: < 10 nM
[4]
  IC50: 29.5 nM

## O=S(=O)(c1ccccc1)N1CCN(CC2CC3c4ccccc4Cc4ccc(F)cc4C3O2)CC1 (stereo not drawn) [Compound 106]
[1]
  IC50: 9550 nM
[2]
  IC50: 61.7 nM
[3]
  IC50: 16.6 nM
[4]
  IC50: 44.7 nM

## OCCC1CCN(C[C@H]2C[C@@H]3c4ccccc4Cc4ccc(F)cc4[C@@H]3O2)CC1 [Compound 154]
[1]
  IC50: > 10000 nM
[2]
  IC50: 1.62 nM
[3]
  IC50: 0.912 nM
[4]
  IC50: 1.35 nM

## Fc1ccc2c(c1)C1OC(CN3CCN(C(=S)Nc4ccccc4)CC3)CC1c1ccccc1C2 (stereo not drawn) [Compound 115]
[1]
  IC50: 490 nM
[2]
  IC50: 22.4 nM
[3]
  IC50: 7.41 nM
[4]
  IC50: 112 nM

## COc1ccc(OC2CCN(CC3CC4c5ccccc5Cc5ccc(F)cc5C4O3)C2)cc1 (mixture of isomers) [Compound 33]
[1]
  IC50: 4900 nM
[2]
  IC50: 2 nM
[3]
  IC50: 6.17 nM
[4]
  IC50: 7.94 nM

## O=C(NCc1ccccc1)OCC1CCN(CC2CC3c4ccccc4Cc4ccc(F)cc4C3O2)C1 (mixture of isomers) [Compound 24]
[1]
  IC50: 2690 nM
[2]
  IC50: 1.45 nM
[3]
  IC50: 1.82 nM
[4]
  IC50: 4.27 nM

## CCS(=O)(=O)N1CCN(CC2CC3c4ccccc4Cc4ccc(F)cc4C3O2)CC1 (stereo not drawn) [Compound 103]
[1]
  IC50: > 10000 nM
[2]
  IC50: 50.1 nM
[3]
  IC50: 7.76 nM
[4]
  IC50: 19.5 nM

## CC(C)NC(=O)N1CCN(CC2CC3c4ccccc4Cc4ccc(F)cc4C3O2)CC1 (stereo not drawn) [Compound 88]
[1]
  IC50: 6460 nM
[2]
  IC50: 5.5 nM
[3]
  IC50: 0.38 nM
[4]
  IC50: 22.9 nM

## OC1CCN(CC2CC3c4ccccc4Sc4ccc(F)cc4C3O2)C1 (racemic) [Compound 44]
[1]
  IC50: 282 nM
[2]
  IC50: 9.33 nM
[3]
  IC50: < 10 nM
[4]
  IC50: 10 nM

## O=C(Nc1ccc(F)cc1)OCC1CCN(CC2CC3c4ccccc4Cc4ccc(F)cc4C3O2)C1 (stereo not drawn) [Compound 23]
[1]
  IC50: 3800 nM
[2]
  IC50: 3.8 nM
[3]
  IC50: 2.95 nM
[4]
  IC50: 5.62 nM

## COC(CNC(=O)N1CCN(CC2CC3c4ccccc4Cc4ccc(F)cc4C3O2)CC1)OC (stereo not drawn) [Compound 91]
[1]
  IC50: 4070 nM
[2]
  IC50: 14.8 nM
[3]
  IC50: 1.15 nM
[4]
  IC50: 37.2 nM

## COC(=O)c1ccc(CN2CCN(CC3CC4c5ccccc5Cc5ccc(F)cc5C4O3)CC2)cc1 (stereo not drawn) [Compound 72]
[1]
  IC50: 1170 nM
[2]
  IC50: 60.3 nM
[3]
  IC50: 30.9 nM
[4]
  IC50: 26.9 nM

## O=C(NC1CCN(CC2CC3c4ccccc4Cc4ccc(F)cc4C3O2)CC1)c1ccc(Cl)cc1Cl (stereo not drawn) [Compound 230]
[1]
  IC50: 5750 nM
[2]
  IC50: 12.6 nM
[3]
  IC50: 2.95 nM
[4]
  IC50: 6.03 nM

## O=C(Nc1cccc2cnccc12)C1CCN(CC2CC3c4ccccc4Cc4ccc(F)cc4C3O2)CC1 (stereo not drawn) [Compound 192]
[1]
  IC50: 7410 nM
[2]
  IC50: 3.8 nM
[3]
  IC50: < 10 nM
[4]
  IC50: 11.2 nM

## CCOC(=O)CC1CN(C[C@H]2C[C@@H]3c4ccccc4Cc4ccc(F)cc4[C@@H]3O2)CCO1 (stereo partly drawn) [Compound 135]
[1]
  IC50: 2450 nM
[2]
  IC50: 16.6 nM
[3]
  IC50: 11.2 nM
[4]
  IC50: 32.4 nM

## O=C(NCCCc1ccccc1)N1CCN(CC2CC3c4ccccc4Cc4ccc(F)cc4C3O2)CC1 (stereo not drawn) [Compound 93]
[1]
  IC50: 4170 nM
[2]
  IC50: 5.01 nM
[3]
  IC50: 2.57 nM
[4]
  IC50: 11.7 nM

## OC(COc1ccc(Cl)cc1)CN1CCN(C[C@H]2C[C@@H]3c4ccccc4Cc4ccc(F)cc4[C@@H]3O2)CC1 (stereo partly drawn) [Compound 56]
[1]
  IC50: 5620 nM
[2]
  IC50: 10.2 nM
[3]
  IC50: 6.03 nM
[4]
  IC50: 26.3 nM

## O=C(NCc1ccc(F)cc1)N1CCN(CC2CC3c4ccccc4Cc4ccc(F)cc4C3O2)CC1 (stereo not drawn) [Compound 99]
[1]
  IC50: > 10000 nM
[2]
  IC50: 8.13 nM
[3]
  IC50: 3.16 nM
[4]
  IC50: 11.5 nM

## O=C(c1cccs1)N1CCN(CC2CC3c4ccccc4Cc4ccc(F)cc4C3O2)CC1 (stereo not drawn) [Compound 81]
[1]
  IC50: > 10000 nM
[2]
  IC50: 5.01 nM
[3]
  IC50: 0.724 nM
[4]
  IC50: 35.5 nM

## O=C(O)C1CCN(C[C@H]2C[C@@H]3c4ccccc4Cc4ccc(F)cc4[C@@H]3O2)C1 (stereo partly drawn) [Compound 10]
[1]
  IC50: > 10000 nM
[2]
  IC50: 13.5 nM
[3]
  IC50: 17.4 nM
[4]
  IC50: 437 nM

## COCC1CCCN1CC1CC2c3ccccc3Cc3ccc(F)cc3C2O1 (mixture of isomers) [Compound 38]
[1]
  IC50: 5130 nM
[2]
  IC50: 15.5 nM
[3]
  IC50: 13.5 nM
[4]
  IC50: 224 nM

## Fc1ccc2c(c1)C1OC(CN3CCN(c4nc5ccccc5s4)CC3)CC1c1ccccc1C2 (stereo not drawn) [Compound 125]
[1]
  IC50: > 10000 nM
[2]
  IC50: 77.6 nM
[3]
  IC50: 17.4 nM
[4]
  IC50: 257 nM

## CCCCCCCCCCNC(=O)C1CCN(C[C@H]2C[C@@H]3c4ccccc4Cc4ccc(F)cc4[C@@H]3O2)CC1 [Compound 178]
[1]
  IC50: > 10000 nM
[2]
  IC50: 9.33 nM
[3]
  IC50: < 10 nM
[4]
  IC50: 50.1 nM

## CN(C)C(=O)CC1CN(C[C@H]2C[C@@H]3c4ccccc4Cc4ccc(F)cc4[C@@H]3O2)CCO1 (stereo partly drawn) [Compound 136]
[1]
  IC50: 70.8 nM
[2]
  IC50: 3.31 nM
[3]
  IC50: 1.58 nM
[4]
  IC50: 24.5 nM

## Fc1ccc2c(c1)[C@@H]1O[C@@H](CN3CCN(CC4CCCCC4)CC3)C[C@@H]1c1ccccc1C2 [Compound 69]
[1]
  IC50: > 10000 nM
[2]
  IC50: 79.4 nM
[3]
  IC50: 41.7 nM
[4]
  IC50: 7.24 nM

## CCOC(=O)C1CCCCN1C(=O)C1CCN(CC2CC3c4ccccc4Cc4ccc(F)cc4C3O2)CC1 (mixture of isomers) [Compound 205]
[1]
  IC50: 8510 nM
[2]
  IC50: 4.47 nM
[3]
  IC50: < 10 nM
[4]
  IC50: 12.6 nM

## OC(COCc1ccco1)CN1CCN(CC2CC3c4ccccc4Cc4ccc(F)cc4C3O2)CC1 (mixture of isomers) [Compound 55]
[1]
  IC50: 1820 nM
[2]
  IC50: 3.16 nM
[3]
  IC50: 2.69 nM
[4]
  IC50: 8.13 nM

## COC(=O)C1CCN(C[C@H]2C[C@@H]3c4ccccc4Cc4ccc(F)cc4[C@@H]3O2)C1 (single isomer, unassigned) [Compound 11, [2R-(2α, 3aα, 12bβ)]-(3′RS) 1-(11-fluoro-3,3a,8,12b-tetrahydro-2H-1-oxa-dibenzo[e,h]azulen-2-ylmethyl)-pyrrolidine-3-carboxylic acid methyl ester.oxalate (1:1)]
[1]
  IC50: 8320 nM
[2]
  IC50: 0.708 nM
[3]
  IC50: 2.04 nM
[4]
  IC50: 9.77 nM

## Fc1ccc(OCC2CCN(CC3CC4c5ccccc5Cc5ccc(F)cc5C4O3)C2)cc1 (stereo not drawn) [Compound 26]
[1]
  IC50: > 10000 nM
[2]
  IC50: 5.62 nM
[3]
  IC50: 5.13 nM
[4]
  IC50: 3.63 nM

## O=C(NCCC(c1ccccc1)c1ccccc1)C1CCN(CC2CC3c4ccccc4Cc4ccc(F)cc4C3O2)CC1 (stereo not drawn) [Compound 198]
[1]
  IC50: 7590 nM
[2]
  IC50: 16.2 nM
[3]
  IC50: 8.13 nM
[4]
  IC50: 25.1 nM

## O=C(O)CC1CN(C[C@H]2C[C@@H]3c4ccccc4Cc4ccc(F)cc4[C@@H]3O2)CCO1 (stereo partly drawn) [Compound 134]
[1]
  IC50: 42.7 nM
[2]
  IC50: 1.38 nM
[3]
  IC50: < 10 nM
[4]
  IC50: 41.7 nM
